# ChEMBL document CHEMBL1909046, “DrugMatrix in vitro pharmacology data”
# pIC50, pKi: −log10 of the molar value.
# Legend:
# [1] = target: T1, Alpha-1A adrenergic receptor (Rattus norvegicus, UniProt P43140); experiment: DRUGMATRIX: Alpha-1A adrenergic receptor radioligand binding (ligand: prazosin); format: cell membranes, Wistar, Submaxillary gland, Membrane; details: Not Active = under 50% inhibition at 10 µM
# T1 sequence (P43140 whole entry): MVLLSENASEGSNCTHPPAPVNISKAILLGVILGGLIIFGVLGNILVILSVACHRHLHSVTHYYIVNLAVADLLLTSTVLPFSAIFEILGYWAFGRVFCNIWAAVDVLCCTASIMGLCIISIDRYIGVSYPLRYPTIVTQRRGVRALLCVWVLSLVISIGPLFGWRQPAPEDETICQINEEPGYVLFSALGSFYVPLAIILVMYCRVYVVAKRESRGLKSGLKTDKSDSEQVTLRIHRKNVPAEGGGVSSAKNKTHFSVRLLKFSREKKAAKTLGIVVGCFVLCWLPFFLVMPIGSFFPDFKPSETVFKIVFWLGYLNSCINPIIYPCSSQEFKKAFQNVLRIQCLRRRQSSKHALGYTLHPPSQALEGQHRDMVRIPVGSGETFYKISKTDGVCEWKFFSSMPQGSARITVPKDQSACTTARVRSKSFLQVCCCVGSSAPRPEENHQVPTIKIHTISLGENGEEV
# [2] = target: T2, Alpha-2A adrenergic receptor (Homo sapiens, UniProt P08913); format: cell membranes, Sf9, Membrane; details: sf9; further: in other assays of this panel Not Active means under 50% inhibition at 10 µM
# T2 sequence (P08913 whole entry): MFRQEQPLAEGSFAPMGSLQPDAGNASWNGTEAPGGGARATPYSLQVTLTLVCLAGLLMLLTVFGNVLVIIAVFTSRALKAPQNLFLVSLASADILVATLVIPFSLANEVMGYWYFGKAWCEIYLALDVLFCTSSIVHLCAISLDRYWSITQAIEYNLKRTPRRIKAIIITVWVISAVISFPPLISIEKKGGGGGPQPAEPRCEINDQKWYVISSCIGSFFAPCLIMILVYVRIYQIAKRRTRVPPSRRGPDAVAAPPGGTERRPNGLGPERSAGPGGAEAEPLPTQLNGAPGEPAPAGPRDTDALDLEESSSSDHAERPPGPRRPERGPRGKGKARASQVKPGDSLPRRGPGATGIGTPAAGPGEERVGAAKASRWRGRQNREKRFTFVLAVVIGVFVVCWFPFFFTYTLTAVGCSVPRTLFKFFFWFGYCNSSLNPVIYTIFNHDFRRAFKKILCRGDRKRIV
# [3] = target: 5-hydroxytryptamine receptor 2B (Homo sapiens, UniProt P41595); format: cell membranes, CHO-K1, Membrane; details: for IC50 / Ki: cho-k1; on all read-outs here: in other assays of this panel Not Active means under 50% inhibition at 10 µM
# Chain of 5-hydroxytryptamine receptor 2B (P41595 whole entry): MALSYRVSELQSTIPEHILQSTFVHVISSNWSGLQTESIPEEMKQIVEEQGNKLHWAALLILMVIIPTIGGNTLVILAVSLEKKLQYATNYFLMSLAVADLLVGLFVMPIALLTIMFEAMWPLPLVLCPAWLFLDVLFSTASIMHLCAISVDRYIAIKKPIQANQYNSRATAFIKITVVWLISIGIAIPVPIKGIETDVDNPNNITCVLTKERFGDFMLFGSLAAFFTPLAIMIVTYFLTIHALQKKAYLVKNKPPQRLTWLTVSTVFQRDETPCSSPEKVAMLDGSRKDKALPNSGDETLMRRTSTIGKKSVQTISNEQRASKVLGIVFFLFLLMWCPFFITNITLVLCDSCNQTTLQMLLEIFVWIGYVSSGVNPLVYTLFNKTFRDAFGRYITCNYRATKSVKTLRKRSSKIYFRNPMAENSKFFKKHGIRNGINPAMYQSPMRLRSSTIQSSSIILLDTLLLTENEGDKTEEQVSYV
# [4] = target: 5-hydroxytryptamine receptor 6 (Homo sapiens, UniProt P50406); format: cell membranes, HeLa, Membrane; details: hela; further: in other assays of this panel Not Active means under 50% inhibition at 10 µM
# Chain of 5-hydroxytryptamine receptor 6 (P50406 whole entry): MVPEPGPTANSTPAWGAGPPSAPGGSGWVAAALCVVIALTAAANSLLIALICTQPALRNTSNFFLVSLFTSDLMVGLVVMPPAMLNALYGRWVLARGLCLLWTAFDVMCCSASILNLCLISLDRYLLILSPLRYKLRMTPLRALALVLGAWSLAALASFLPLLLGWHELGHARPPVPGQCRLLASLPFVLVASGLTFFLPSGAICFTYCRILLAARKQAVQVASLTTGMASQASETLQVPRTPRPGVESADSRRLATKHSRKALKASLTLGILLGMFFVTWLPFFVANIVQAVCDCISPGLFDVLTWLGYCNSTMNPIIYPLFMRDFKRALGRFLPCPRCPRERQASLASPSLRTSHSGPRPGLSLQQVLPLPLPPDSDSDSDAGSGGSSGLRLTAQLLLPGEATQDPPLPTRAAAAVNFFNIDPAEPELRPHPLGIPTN
# [5] = target: T3, Cholecystokinin receptor type A (Homo sapiens, UniProt P32238); format: cell membranes, Membrane; details: 1321-n1; further: in other assays of this panel Not Active means under 50% inhibition at 10 µM
# T3 sequence (P32238 whole entry): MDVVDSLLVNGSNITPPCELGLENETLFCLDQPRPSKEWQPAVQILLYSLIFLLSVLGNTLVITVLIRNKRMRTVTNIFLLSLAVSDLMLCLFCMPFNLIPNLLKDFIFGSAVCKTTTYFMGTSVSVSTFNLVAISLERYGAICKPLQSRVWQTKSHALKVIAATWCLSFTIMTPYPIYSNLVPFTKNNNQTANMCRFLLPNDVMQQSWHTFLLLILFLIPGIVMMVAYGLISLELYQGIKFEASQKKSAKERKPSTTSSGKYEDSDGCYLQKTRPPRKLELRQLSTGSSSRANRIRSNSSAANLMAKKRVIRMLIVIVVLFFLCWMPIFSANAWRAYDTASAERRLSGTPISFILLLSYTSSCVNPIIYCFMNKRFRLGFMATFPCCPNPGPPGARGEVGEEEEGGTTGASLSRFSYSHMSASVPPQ
# [6] = target: Histamine H2 receptor (Homo sapiens, UniProt P25021); format: cell membranes, CHO-K1, Membrane; details: cho-k1; further: in other assays of this panel Not Active means under 50% inhibition at 10 µM
# Chain of Histamine H2 receptor (P25021 whole entry): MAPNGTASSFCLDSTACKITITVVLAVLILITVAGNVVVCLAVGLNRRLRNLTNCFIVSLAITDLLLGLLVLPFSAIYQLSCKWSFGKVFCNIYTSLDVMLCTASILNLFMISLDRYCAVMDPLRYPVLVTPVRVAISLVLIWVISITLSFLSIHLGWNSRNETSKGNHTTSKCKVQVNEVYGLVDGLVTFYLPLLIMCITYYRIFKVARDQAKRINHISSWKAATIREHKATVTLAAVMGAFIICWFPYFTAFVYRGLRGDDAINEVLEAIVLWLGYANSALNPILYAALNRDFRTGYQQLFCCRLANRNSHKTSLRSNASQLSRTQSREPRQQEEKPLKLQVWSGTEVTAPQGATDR
Compound,IC50 [1],IC50 [2],IC50 [3],IC50 [4],IC50 [5],IC50 [6],pIC50 ([1]; read-out: IC50),pKi ([1]; read-out: Ki),Ki [1],Ki [2],Ki [3],Ki [4],Ki [5],Ki [6],pIC50 ([3]; read-out: IC50),pKi ([3]; read-out: Ki)
COc1ccccc1OCC(O)CO (centres undefined) [GUAIFENESIN],Not Active,Not Active,Not Active,Not Active,Not Active,Not Active,–,–,–,–,–,–,–,–,–,–
[N-]=[N+]=CC(=O)OC[C@H](N)C(=O)O [AZASERINE],Not Active,Not Active,Not Active,Not Active,Not Active,Not Active,–,–,–,–,–,–,–,–,–,–
N[C@@H](Cc1ccc(F)cc1)C(=O)O,Not Active,Not Active,Not Active,Not Active,Not Active,Not Active,–,–,–,–,–,–,–,–,–,–
O=C(/C=C/c1ccc(O)c(O)c1)OCCc1ccccc1 [CAFFEIC ACID PHENETHYL ESTER],Not Active,Not Active,Not Active,Not Active,Not Active,Not Active,–,–,–,–,–,–,–,–,–,–
CCOC(=O)C1=C(C)NC(C)=C(C(=O)OC)C1c1cccc(Cl)c1Cl (centres undefined) [FELODIPINE],Not Active,Not Active,Not Active,Not Active,Not Active,Not Active,–,–,–,–,–,–,–,–,–,–
OCCO [ETHYLENE GLYCOL],Not Active,Not Active,Not Active,Not Active,Not Active,Not Active,–,–,–,–,–,–,–,–,–,–
CCC[C@@H]1C[C@@H](C(=O)N[C@@H]([C@H]2O[C@H](SC)[C@H](O)[C@@H](O)[C@H]2O)[C@H](C)Cl)N(C)C1 [CLINDAMYCIN],Not Active,Not Active,Not Active,Not Active,Not Active,Not Active,–,–,–,–,–,–,–,–,–,–
C[C@H]([C@](O)(Cn1cncn1)c1ccc(F)cc1F)S(C)(=O)=O [GENACONAZOLE],Not Active,Not Active,Not Active,Not Active,Not Active,Not Active,–,–,–,–,–,–,–,–,–,–
Nc1nc(N)nc(NC2CC2)n1 [CYROMAZINE],Not Active,Not Active,Not Active,Not Active,Not Active,Not Active,–,–,–,–,–,–,–,–,–,–
CC[C@H](C)C(=O)O[C@H]1C[C@H](O)C=C2C=C[C@H](C)[C@H](CC[C@@H](O)C[C@@H](O)CC(=O)O)[C@H]21 [PRAVASTATIN],Not Active,Not Active,Not Active,Not Active,Not Active,Not Active,–,–,–,–,–,–,–,–,–,–
OCCN1CCN(CCCN2c3ccccc3Sc3ccc(Cl)cc32)CC1 [PERPHENAZINE],Not Active,Not Active,Not Active,Not Active,Not Active,Not Active,–,–,–,–,–,–,–,–,–,–
CC(C)(C)c1ccc(S(=O)(=O)/C=C/C#N)cc1 [BAY-11-7085],Not Active,Not Active,Not Active,Not Active,Not Active,Not Active,–,–,–,–,–,–,–,–,–,–
CCC(=O)O[C@H]1[C@H](O[C@@H]2[C@@H](C)[C@H](O[C@H]3C[C@@](C)(OC)[C@@H](O)[C@H](C)O3)[C@@H](C)C(=O)O[C@H](CC)[C@@](C)(O)[C@H](O)[C@@H](C)C(=O)[C@H](C)C[C@@]2(C)O)O[C@H](C)C[C@@H]1N(C)C [ERYTHROMYCIN PROPIONATE],Not Active,Not Active,Not Active,Not Active,Not Active,Not Active,–,–,–,–,–,–,–,–,–,–
C#C[C@]1(O)CC[C@H]2[C@@H]3CCc4cc(O)ccc4[C@H]3CC[C@@]21C [ETHINYL ESTRADIOL],Not Active,Not Active,Not Active,Not Active,Not Active,Not Active,–,–,–,–,–,–,–,–,–,–
Nc1nc(Cl)nc2c1ncn2[C@H]1C[C@H](O)[C@@H](CO)O1 [CLADRIBINE],Not Active,Not Active,Not Active,Not Active,Not Active,Not Active,–,–,–,–,–,–,–,–,–,–
CC(C)(Sc1cc(C(C)(C)C)c(O)c(C(C)(C)C)c1)Sc1cc(C(C)(C)C)c(O)c(C(C)(C)C)c1 [PROBUCOL],Not Active,Not Active,Not Active,Not Active,Not Active,Not Active,–,–,–,–,–,–,–,–,–,–
CC(CCc1ccc(O)cc1)NCCc1ccc(O)c(O)c1 (centres undefined) [DOBUTAMINE],–,Not Active,Not Active,Not Active,Not Active,Not Active,6.96,7.35,–,–,–,–,–,–,–,–
POLYVINYL ALCOHOL,Not Active,Not Active,Not Active,Not Active,Not Active,Not Active,–,–,Not Active,Not Active,Not Active,Not Active,Not Active,Not Active,–,–
CS(=O)(=O)OCCCCOS(C)(=O)=O [BUSULFAN],Not Active,Not Active,Not Active,Not Active,Not Active,Not Active,–,–,–,–,–,–,–,–,–,–
CC[C@H]1OC(=O)[C@H](C)[C@@H](O[C@H]2C[C@@](C)(OC)[C@@H](O)[C@H](C)O2)[C@H](C)[C@@H](O[C@@H]2O[C@H](C)C[C@H](N(C)C)[C@H]2O)[C@](C)(O)C[C@@H](C)CN(C)[C@H](C)[C@@H](O)[C@]1(C)O [AZITHROMYCIN],Not Active,Not Active,Not Active,Not Active,Not Active,Not Active,–,–,–,–,–,–,–,–,–,–
CC(=O)OCC(CCn1cnc2cnc(N)nc21)COC(C)=O [FAMCICLOVIR],Not Active,Not Active,Not Active,Not Active,Not Active,Not Active,–,–,–,–,–,–,–,–,–,–
C/C=C\c1ccc(O)c(OC)c1 [ISOEUGENOL],Not Active,Not Active,Not Active,Not Active,Not Active,Not Active,–,–,–,–,–,–,–,–,–,–
O=C(c1ccccc1Cl)N1CCC(Cc2ccccc2)CC1,Not Active,Not Active,–,Not Active,Not Active,Not Active,–,–,–,–,–,–,–,–,5.82,6.02
Cc1c(F)c(N2CCNC(C)C2)cc2c1c(=O)c(C(=O)O)cn2C1CC1 (centres undefined) [GREPAFLOXACIN],Not Active,Not Active,Not Active,Not Active,Not Active,Not Active,–,–,–,–,–,–,–,–,–,–
CC(C(=O)O)c1ccc(-c2ccccc2)c(F)c1 (centres undefined) [FLURBIPROFEN],Not Active,Not Active,Not Active,Not Active,Not Active,Not Active,–,–,–,–,–,–,–,–,–,–
COC(=O)c1ccccc1O [METHYL SALICYLATE],Not Active,Not Active,Not Active,Not Active,Not Active,Not Active,–,–,–,–,–,–,–,–,–,–
O=C(O)c1cccnc1 [NIACIN],Not Active,Not Active,Not Active,Not Active,Not Active,Not Active,–,–,–,–,–,–,–,–,–,–
CC[C@H](C)C(=O)O[C@H]1C[C@@H](C)C=C2C=C[C@H](C)[C@H](CC[C@@H]3C[C@@H](O)CC(=O)O3)[C@H]21 [LOVASTATIN],Not Active,Not Active,Not Active,Not Active,Not Active,Not Active,–,–,–,–,–,–,–,–,–,–
COBALT(II) ACETYLACETONATE,Not Active,Not Active,Not Active,Not Active,Not Active,Not Active,–,–,Not Active,Not Active,Not Active,Not Active,Not Active,Not Active,–,–
CN(C(=O)CCCOc1ccc2[nH]c(=O)ccc2c1)C1CCCCC1 [CILOSTAMIDE],Not Active,Not Active,Not Active,Not Active,Not Active,Not Active,–,–,–,–,–,–,–,–,–,–
